Assay results: US11318108B2, “Use of carotenoid derivatives to reduce the toxicity and increase the efficacy of anti-EGFR antitumor treatments” (ASSOCIAZIONE ONCOLOGICA MILANESE AMO LA VITA ONLUS, priority 2017, dated 2022)

How the values were obtained:
[1] = cited from earlier work
[2] = test system: cutaneous and/or mucosal toxicity induced by anti-EGFR drugs; assay: administration of lycopene to patients treated with anti-EGFR drugs; type: in vivo
Description: The regression has been so significant that patients, who could not shave the beard before the treatment with lycopene, could perform normal shaving after 2 weeks from the daily administration of lycopene.

[3] = dosage of treatment group A (6.5 mg tablets, 3 tablets/day)
[4] = patients affected by paronychia due to anti-EGFR drugs

With `CC(C)=CCC/C(C)=C/C=C/C(C)=C/C=C/C(C)=C/C=C/C=C(C)/C=C/C=C(C)/C=C/C=C(\C)CCC=C(C)C` [lycopene] as the molecule, how does the “side effects during chronic intake” value ([1]; chronic intake, several studies) read?
The value was “absence of relevant side effects”.

And the “observed safe level of intake (OSL)” value ([1]; chronic intake)?
The value was “up to 75 mg/day”.

And the “antioxidant effects at the trial dosage” value [1, 3]?
The value was “significant antioxidant effects”.

What about the “side effects at the trial dosage” value [1, 3] of the same molecule?
Its value is “not to have relevant side effects”.

And the “regression of pustular injuries” value ([2]; male patients of age between 35 and 55 years treated with anti-EGFR drugs, already presenting pustular injuries)?
The value was “significant regression”.

And the “time from daily administration until normal shaving possible” value ([2]; male patients who could not shave the beard before treatment, daily administration)?
The value was 2 weeks.

What about the “functional ability of hand fingers” value [2, 4] of the same molecule?
The value was “recover the lost functional ability”.

What about the “nail growth and strength” value [2, 4] of the same molecule?
The value was “recover the normal nail growth and strength”.

And the “pain condition in paronychia” value [2, 4]?
Its value is “improvement of the pain condition”.

And the inflammation of paronychia ([2]; patients affected by paronychia due to anti-EGFR drugs with functional disabling of the hand fingers)?
The inflammation of paronychia was “resolution of the inflammation”.

And the “regression of the rosiness (diffuse erythema of the face)” value ([2]; patients treated with anti-EGFR drugs)?
Its value is “significant regression of the rosiness”.

What about the “onset/extension of rosiness coloration” value ([2]; some patients not yet affected by erythema) of the same molecule?
Its value is “delayed and/or decreased the extension of such coloration”.
